{
  "source": "patent US12480163B2",
  "about": "“Compositions and methods for identification assessment, prevention, and treatment of Ewing sarcoma using TP53 dependency biomarkers and modulators” (Dana-Farber Cancer Institute, Inc., priority 2018, dated 2025)",
  "key": {"[1]": {"system": "TP53 mutated Ewing sarcoma cell lines", "assay": "CellTiter-Glo cell viability assay, TP53 mutated Ewing sarcoma cell lines", "type": "cell-based", "conditions": "treated for 3 d", "method": "(§1) Cell viability was assessed using the CellTiter-Glo® Luminescent Cell Viability Assay (Promega). Viability assays were performed after Ewing sarcoma cell lines were infected with sgRNAs targeting TP53, MDM2, MDM4, PPM1D, or USP7 or treated with ATSP-7041, ATSP-7342, GSK2830371, P5091, XL-188, or vehicle control."}, "[2]": {"system": "TP53 wild-type Ewing sarcoma cell lines", "assay": "Annexin V staining, flow cytometry (cell death)", "type": "cell-based", "conditions": "TC32 and CHLA258; 2 d ATSP-7041 (2 μM, 4 μM) or P5091 (6.5 μM, 8 μM), 3 d GSK2830371 (15 μM)", "method": "Cell death was measured using flow cytometric analysis of Annexin V staining according to the manufacturer's instructions (eBioscience). Data analysis was completed using Flowjo 7.6 software (Treestar)."}, "[3]": {"system": "TP53 wild-type Ewing sarcoma cell lines", "assay": "CellTiter-Glo cell viability assay, TP53 wild-type Ewing sarcoma cell lines", "type": "cell-based", "conditions": "TP53 wild-type Ewing sarcoma cell lines, treated for 3 d, micromolar concentrations", "method": "as §1"}, "[4]": {"system": "TC32, TC138, and CHLA258 cells", "assay": "Drug synergy analysis, Chou-Talalay combination index for Loewe additivity", "type": "cell-based", "conditions": "CI<1 synergistic; for combination index, ATSP-7041 combined with P5091: CI>1 antagonistic", "method": "as §1\nk. Drug Synergy Analysis Chou-Talalay Combination Index for Loewe Additivity\nLoewe Additivity is a dose-effect approach that estimates the effect of combining two drugs based on the concentration of each individual drug that produces the same quantitative effect (Goldoni and Johansson (2007) Toxicol. In Vitro 21:759-769). […] They introduced the combination index (CI) scores to estimate the interaction between the two drugs. If CI<1, the drugs have a synergistic effect, and if CI>1, the drugs have an antagonistic effect. CI=1 means the drugs have an additive effect."}, "PDX tumors (HSJD-ES-002)": {"system": "PDX tumors (HSJD-ES-002)", "assay": "Ewing sarcoma PDX (HSJD-ES-002) anti-tumor efficacy study", "type": "in vivo, mice", "method": "j. Ewing Sarcoma Xenograft Studies\nFor anti-tumor efficacy studies, tumor xenografts were established in 15 nude female mice by implanting three million TC32 cells into the right flank. Animals were randomized to either 20 d of treatment with 30 mg/kg q.o.d. IV ATSP-7041 (n=8) or vehicle (n=7) for a total of 10 doses. Treatment was started when tumors reached 100-200 mm3. Tumor volumes were measured with calipers twice a week. For PDX studies, tumor fragments were implanted into the right flank of nude female mice by minor surgery. After tumor engraftment, studies were performed as described for TC32 xenograft studies.\nFor in vivo studies, ATSP-7041 was prepared using the following protocol: mPEG-DSPE (Nanocs) was dissolved in chloroform and dried by a rotary evaporator. ATSP-7041 was dissolved in 1 M NaOH and diluted 100-fold in 10 mM histidine-buffered saline to a final concentration of 3 mg/ml. This mixture was added to the dried lipid film to a final mPEG-DSPE concentration of 50 mg/ml and final pH 7. The film was rehydrated by brief sonication and heating in a 50° C. water bath. The mixture was then subjected to five freeze-thaw cycles in liquid nitrogen and 40° C. water, respectively, and the solution passed 10 times through an Avanti Mini-Extruder Set (Avanti Polar Lipids) equipped with a 800-nm filter (Whatman)."}, "PDX tumor tissues": {"system": "PDX tumor tissues", "assay": "Pharmacodynamics study in PDX tumor tissue (Western blot, quantitative PCR)", "type": "in vivo, mice", "conditions": "PDX HSJD-ES-002, three doses 30 mg/kg q.o.d.", "method": "(§2) Whole-cell lysates were extracted in cell lysis buffer (Cell Signaling) supplemented with EDTA-free protease inhibitors and PhosSTOP™ phosphatase inhibitors (Roche). Western immunoblotting was performed using standard techniques. Primary antibodies used included anti-MDM2 (ab178938; Abcam), anti-MDM2 (86934; Cell Signaling), anti-MDM4 (A300-287A; Bethyl Laboratories), anti-p53 (2527S; Cell Signaling), anti-p21 (2946S; Cell Signaling), anti-Vinculin (18058; Abcam), anti-Wip1 (A300-664A; Bethyl Laboratories), anti-pSer15-p53 (9284; Cell Signaling), anti-USP7 (A300-033A; Bethyl Laboratories), and anti-Tubulin (cp06; CalBiochem).\n(§3) RNA was extracted from cells with the RNeasy® kit and on-column DNA digestion (Qiagen). cDNA was prepared using M-MLV reverse transcription (ThermoFisher Scientific). TaqMan™ Gene Expression Master Mix (Applied Biosystems) was used per the manufacturer's protocol. TaqMan™ probes included RPL13A (Hs04194366_g1; ThermoFisher Scientific), CDKNIA (Hs00355782_m1; Thermo Fisher Scientific), and MDM2 (Hs01066930_m1; ThermoFisher Scientific). Data were collected in triplicate and analyzed using the ΔΔCT method.\n(§4) For pharmacodynamics studies, tumor xenografts were established in six nude female mice by implanting three million TC32 cells or PDX tumor fragments into the right flank. Animals were randomized to either ATSP-7041 (n=3) or vehicle treatment (n=3). […]"}, "[5]": {"system": "TC32 xenograft tumor tissues", "assay": "Pharmacodynamics study in TC32 xenograft tumor tissue (Western blot, quantitative PCR)", "type": "in vivo, mice", "conditions": "three doses 30 mg/kg IV q.o.d., 8 h after last dose", "method": "as §2, §3, §4"}, "[6]": {"conditions": "TC32, TC138, CHLA258, 3 d, CI=1 additive"}},
  "note": "Entries after “also recorded” stand apart in the source; their conditions may differ.",
  "data": [
    {"smiles": "CC(=O)N[C@@H](CC(C)C)C(=O)N[C@H](C(=O)N[C@@H](Cc1ccccc1)C(=O)N[C@]1(C)CCCCCCC=CCCC[C@@](C)(C(=O)N[C@@H](CO)C(=O)N[C@@H](C)C(=O)N[C@@H](C)C(N)=O)NC(=O)[C@H](CC2CCC2)NC(=O)[C@H](CCC(N)=O)NC(=O)[C@H](C)NC(=O)[C@H](Cc2c[nH]c3ccccc23)NC(=O)[C@H](Cc2ccc(O)cc2)NC(=O)[C@H](CCC(=O)O)NC1=O)[C@@H](C)O", "note": "[ATSP-7041, Ac-Leu17-Thr-Phe-cyclo(R8-Glu-Tyr-Trp-Ala-Gln-Cba-S5)-Ser-Ala-Ala30-NH2]", "values": [
      {"measurement": "cell viability, normalized to vehicle control", "setting": "[1]", "result": "resistant"},
      {"measurement": "cell death measured by Annexin V staining", "setting": "[2]", "result": "triggers cell death; also recorded: induction of cell death"},
      {"measurement": "cell viability, normalized to vehicle control", "setting": "[3]", "result": "selectively reduced the viability"},
      {"measurement": "combination index, ATSP-7041 combined with P5091", "setting": "[4]; CHLA258, 5 d, CI=1 additive", "result": "additivity"},
      {"measurement": "combination index, ATSP-7041 combined with doxorubicin", "setting": "[4]; [6]", "result": "additivity or synergy"},
      {"measurement": "combination index, ATSP-7041 combined with etoposide", "setting": "[4]; [6]", "result": "additivity or synergy"},
      {"measurement": "combination index, ATSP-7041 combined with vincristine", "setting": "[4]; [6]", "result": "additivity or synergy"},
      {"measurement": "combination index, ATSP-7041 combined with GSK2830371", "setting": "[4]; TC32, TC138, and CHLA258, 3 d", "result": "strong synergy"},
      {"measurement": "combination index, ATSP-7041 combined with P5091", "setting": "[4]; TC32 and TC138, 5 d, CI=1 additive", "result": "synergy"},
      {"measurement": "survival of mice", "setting": "PDX tumors (HSJD-ES-002); PDX HSJD-ES-002, 10 doses 30 mg/kg q.o.d. vs vehicle", "result": "significantly extended"},
      {"measurement": "tumor growth (normalized tumor volume)", "setting": "PDX tumors (HSJD-ES-002); PDX HSJD-ES-002, 10 doses 30 mg/kg q.o.d. vs vehicle, 30 mg/kg", "result": "slowed significantly; also recorded: slowed in all mice"},
      {"measurement": "complete tumor regression", "setting": "PDX tumors (HSJD-ES-002); PDX HSJD-ES-002, one mouse of n=8, observed time frame of 227 d", "result": "complete tumor regression without recurrence; also recorded: one out of eight mice achieved complete and sustained remission of disease"},
      {"measurement": "p53 pathway protein levels in tumor tissue", "setting": "PDX tumor tissues; 8 h after last dose", "result": "increase of MDM2, p53, and p21 protein levels; also recorded: increased intratumoral p53 and p21 protein levels"},
      {"measurement": "MDM2 and p21 mRNA levels in tumor tissue", "setting": "PDX tumor tissues; quantitative PCR", "result": "increase of MDM2 mRNA levels; also recorded: increase of p21 mRNA levels; also recorded: increased MDM2 and p21 mRNA levels"},
      {"measurement": "MDM2, p53, and p21 protein levels in tumor tissue", "setting": "[5]", "result": "increase of MDM2, p53, and p21 protein levels; also recorded: increase in MDM2, p53, and p21 protein levels"},
      {"measurement": "MDM2 and p21 mRNA levels in tumor tissue", "setting": "[5]; quantitative PCR", "result": "increase of MDM2 mRNA levels; also recorded: increase of p21 mRNA levels"}
    ]}
  ]
}
